“And” between values parts separate entries of the source, which are not always exact repeats. Equal entries are not always repeated.
Conditions: Liquid, Transpiration method

CCCCCCC(CO)CCCC (stereo unspecified) [2-butyl-1-octanol]
Conditions	vapor or sublimation pressure [kPa]
308.1 K	0.00112
312.9 K	0.00195
317.8 K	0.00325
322.7 K	0.00526
327.6 K	0.00824
332.5 K	0.01315
337.5 K	0.02027
342.6 K	0.03024
347.6 K	0.0452
352.6 K	0.06767

CCCCCCOC(=O)CCCCC [hexanoic acid, hexyl ester]
Conditions	vapor or sublimation pressure
298.4 K	0.00313 kPa
303.2 K	0.0049 kPa
308 K	0.00732 kPa
312.8 K	0.01166 kPa and 0.01116 kPa
317.7 K	0.01667 kPa
322.6 K	0.0257 kPa
327.5 K	0.03605 kPa
332.4 K	0.05276 kPa
337.3 K	0.07541 kPa
342.3 K	0.1055 kPa
347.3 K	0.1426 kPa and 0.1453 kPa

Reference: the NIST ThermoML archive (doi:10.1021/acs.jced.9b00419)
